Laboratory results published in patent US20250122174A1 (Shenzhen Yuanli Shenwan Innovative Medicine Co., Ltd., priority 2022, published 2025).
pIC50: −log10 of the molar value.

target: HPK1 (Homo sapiens (Human), UniProt Q92918); assay: HPK1 Inhibition Assay (ADP-Glo kinase assay); format: biochemical; settings: ATP 10 μM
Procedure, shortened: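 ADP-Glo luminescence read-out after 1 h room-temperature kinase reaction with 10 μM ATP and 0.1 μg/ml MBP. Recombinant human HPK1 at 7.5 ng/μl; buffer 40 mM Tris pH 7.5, 20 mM MgCl2. Compounds serially diluted 5-fold over 10 points from 10 mM DMSO stock.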

Chain of HPK1 (Q92918 1-346 limits assumed): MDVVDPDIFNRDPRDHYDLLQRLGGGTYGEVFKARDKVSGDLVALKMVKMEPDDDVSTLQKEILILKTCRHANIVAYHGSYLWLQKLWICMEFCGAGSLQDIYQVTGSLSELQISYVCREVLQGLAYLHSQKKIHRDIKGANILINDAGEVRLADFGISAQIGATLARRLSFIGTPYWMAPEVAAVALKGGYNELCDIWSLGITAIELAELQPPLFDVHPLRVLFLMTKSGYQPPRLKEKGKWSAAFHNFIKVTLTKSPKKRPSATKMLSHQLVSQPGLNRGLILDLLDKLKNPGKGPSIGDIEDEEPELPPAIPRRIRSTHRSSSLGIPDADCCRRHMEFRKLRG

pIC50, > 7.00:
N[C@@H]1CCCN(c2c(NC(=O)c3ccc(=O)n(-c4c(F)cccc4F)n3)ccc3c2cnn3[C@H]2CCOC2)C1 [Example 263, N-(4-((R)-3-aminopiperidin-1-yl)-1-((S)-tetrahydrofuran-3-yl)-1H-indazol-5-yl)-1-(2,6-difluorophenyl)-6-oxo-1,6-dihydropyridazine-3-carboxamide]
N[C@@H]1CCCN(c2c(NC(=O)c3ccc(=O)n(-c4c(F)cccc4F)n3)ccc3c2cnn3[C@@H]2CCOC2)C1 [Example 264, N-(4-((R)-3-aminopiperidin-1-yl)-1-((R)-tetrahydrofuran-3-yl)-1H-indazol-5-yl)-1-(2,6-difluorophenyl)-6-oxo-1,6-dihydropyridazine-3-carboxamide]
NC1CCN(c2c(NC(=O)c3ccc(=O)n(-c4c(F)cccc4F)n3)ccc3c2cnn3[C@@H]2CCOC2)CC1 [Example 265, (R)-N-(4-(4-aminopiperidin-1-yl)-1-(tetrahydrofuran-3-yl)-1H-indazol-5-yl)-1-(2,6-difluorophenyl)-6-oxo-1,6-dihydropyridazine-3-carboxamide]
NC1CCN(c2c(NC(=O)c3ccc(=O)n(-c4c(F)cccc4F)n3)ccc3c2cnn3[C@H]2CCOC2)CC1 [Example 266, (S)-N-(4-(4-aminopiperidin-1-yl)-1-(tetrahydrofuran-3-yl)-1H-indazol-5-yl)-1-(2,6-difluorophenyl)-6-oxo-1,6-dihydropyridazine-3-carboxamide]
CC1(C)CN(c2c(NC(=O)c3ccc(=O)n(-c4c(F)cccc4F)n3)ccc3c2cnn3[C@@H]2CCOC2)C[C@@H]1N [Example 267, N-(4-((R)-4-amino-3,3-dimethylpyrrolidin-1-yl)-1-((R)-tetrahydrofuran-3-yl)-1H-indazol-5-yl)-1-(2,6-difluorophenyl)-6-oxo-1,6-dihydropyridazine-3-carboxamide]
CC1(C)CN(c2c(NC(=O)c3ccc(=O)n(-c4c(F)cccc4F)n3)ccc3c2cnn3[C@@H]2CCOC2)C[C@H]1N [Example 268, N-(4-((S)-4-amino-3,3-dimethylpyrrolidin-1-yl)-1-((R)-tetrahydrofuran-3-yl)-1H-indazol-5-yl)-1-(2,6-difluorophenyl)-6-oxo-1,6-dihydropyridazine-3-carboxamide]
CC1(C)CN(c2c(NC(=O)c3ccc(=O)n(-c4c(F)cccc4F)n3)ccc3c2cnn3[C@H]2CCOC2)C[C@@H]1N [Example 269, N-(4-((R)-4-amino-3,3-dimethylpyrrolidin-1-yl)-1-((S)-tetrahydrofuran-3-yl)-1H-indazol-5-yl)-1-(2,6-difluorophenyl)-6-oxo-1,6-dihydropyridazine-3-carboxamide]
CC1(C)CN(c2c(NC(=O)c3ccc(=O)n(-c4c(F)cccc4F)n3)ccc3c2cnn3[C@H]2CCOC2)C[C@H]1N [Example 270, N-(4-((S)-4-amino-3,3-dimethylpyrrolidin-1-yl)-1-((S)-tetrahydrofuran-3-yl)-1H-indazol-5-yl)-1-(2,6-difluorophenyl)-6-oxo-1,6-dihydropyridazine-3-carboxamide]
N[C@H]1CN(c2c(NC(=O)c3ccc(=O)n(-c4c(F)cccc4F)n3)ccc3c2cnn3[C@H]2CCCOC2)CC12CC2 [Example 271, N-(4-((R)-7-amino-5-azaspiro[2.4]heptan-5-yl)-1-((S)-tetrahydro-2H-pyran-3-yl)-1H-indazol-5-yl)-1-(2,6-difluorophenyl)-6-oxo-1,6-dihydropyridazine-3-carboxamide]
N[C@H]1CN(c2c(NC(=O)c3ccc(=O)n(-c4c(F)cccc4F)n3)ccc3c2cnn3[C@@H]2CCCOC2)CC12CC2 [Example 272, N-(4-((R)-7-amino-5-azaspiro[2.4]heptan-5-yl)-1-((R)-tetrahydro-2H-pyran-3-yl)-1H-indazol-5-yl)-1-(2,6-difluorophenyl)-6-oxo-1,6-dihydropyridazine-3-carboxamide]
C[C@H]1CN(c2c(NC(=O)c3ccc(=O)n(-c4c(F)cccc4F)n3)ccc3c2cnn3C2CCOCC2)C[C@@H]1N [Example 273, N-(4-((3R,4S)-3-amino-4-methylpyrrolidin-1-yl)-1-(tetrahydro-2H-pyran-4-yl)-1H-indazol-5-yl)-1-(2,6-difluorophenyl)-6-oxo-1,6-dihydropyridazine-3-carboxamide]
N[C@@H]1CCN(c2c(NC(=O)c3ccc(=O)n(-c4c(F)cccc4F)n3)ccc3c2cnn3C2CCOCC2)C1 [Example 274, N-[4-[(3R)-3-aminopyrrolidin-1-yl]-1-tetrahydropyran-4-yl-indazol-5-yl]-1-(2,6-difluorophenyl)-6-oxo-pyridazine-3-carboxamid]
[2H]C([2H])([2H])C([2H])(n1ncc2c(N3C[C@@H](C)[C@@H](N)C3)c(NC(=O)c3ccc(=O)n(-c4c(F)cccc4F)n3)ccc21)C([2H])([2H])[2H] [Example 275, N-(4-((3R,4R)-3-amino-4-methylpyrrolidin-1-yl)-1-(propan-2-yl-d7)-1H-indazol-5-yl)-1-(2,6-difluorophenyl)-6-oxo-1,6-dihydropyridazine-3-carboxamide]
[2H]C([2H])([2H])C([2H])(n1ncc2c(N3C[C@H](N)C4(CC4)C3)c(NC(=O)c3ccc(=O)n(-c4c(F)cccc4F)n3)ccc21)C([2H])([2H])[2H] [Example 276, (R)-N-(4-(7-amino-5-azaspiro[2.4]heptan-5-yl)-1-(propan-2-yl-d7)-1H-indazol-5-yl)-1-(2,6-difluorophenyl)-6-oxo-1,6-dihydropyridazine-3-carboxamide]
[2H]C([2H])([2H])C(n1ncc2c(N3C[C@H](N)C4(CC4)C3)c(NC(=O)c3ccc(=O)n(-c4c(F)cccc4F)n3)ccc21)C([2H])([2H])[2H] [Example 277, (R)-N-(4-(7-amino-5-azaspiro[2.4]heptan-5-yl)-1-(propan-2-yl-1,1,1,3,3,3-d6)-1H-indazol-5-yl)-1-(2,6-difluorophenyl)-6-oxo-1,6-dihydropyridazine-3-carboxamide]
[2H]C([2H])([2H])C(n1ncc2c(N3C[C@@H](C)[C@@H](N)C3)c(NC(=O)c3ccc(=O)n(-c4c(F)cccc4F)n3)ccc21)C([2H])([2H])[2H] [Example 278, N-(4-((3R,4R)-3-amino-4-methylpyrrolidin-1-yl)-1-(propan-2-yl-1,1,1,3,3,3-d6)-1H-indazol-5-yl)-1-(2,6-difluorophenyl)-6-oxo-1,6-dihydropyridazine-3-carboxamide]
[2H]C([2H])([2H])C(n1ncc2c(N3C[C@H](N)C(C)(C)C3)c(NC(=O)c3ccc(=O)n(-c4c(F)cccc4F)n3)ccc21)C([2H])([2H])[2H] [Example 279, (R)-N-(4-(4-amino-3,3-dimethylpyrrolidin-1-yl)-1-(propan-2-yl-1,1,1,3,3,3-d6)-1H-indazol-5-yl)-1-(2,6-difluorophenyl)-6-oxo-1,6-dihydropyridazine-3-carboxamide]
[2H]C([2H])([2H])C(n1ncc2c(N3C[C@@H](N)C(C)(C)C3)c(NC(=O)c3ccc(=O)n(-c4c(F)cccc4F)n3)ccc21)C([2H])([2H])[2H] [Example 280, (S)-N-(4-(4-amino-3,3-dimethylpyrrolidin-1-yl)-1-(propan-2-yl-1,1,1,3,3,3-d6)-1H-indazol-5-yl)-1-(2,6-difluorophenyl)-6-oxo-1,6-dihydropyridazine-3-carboxamide]
[2H]C([2H])([2H])C([2H])(n1ncc2c(N3C[C@H](N)C(C)(C)C3)c(NC(=O)c3ccc(=O)n(-c4c(F)cccc4F)n3)ccc21)C([2H])([2H])[2H] [Example 281, (R)-N-(4-(4-amino-3,3-dimethylpyrrolidin-1-yl)-1-(propan-2-yl-d7)-1H-indazol-5-yl)-1-(2,6-difluorophenyl)-6-oxo-1,6-dihydropyridazine-3-carboxamide]
[2H]C([2H])([2H])C([2H])(n1ncc2c(N3C[C@@H](N)C(C)(C)C3)c(NC(=O)c3ccc(=O)n(-c4c(F)cccc4F)n3)ccc21)C([2H])([2H])[2H] [Example 282, (S)-N-(4-(4-amino-3,3-dimethylpyrrolidin-1-yl)-1-(propan-2-yl-d7)-1H-indaozl-5-yl)-1-(2,6-difluorophenyl)-6-oxo-1,6-dihydropyridazine-3-carboxamide]
COCCn1ncc2c(N3C[C@@H](C)[C@@H](N)C3)c(NC(=O)c3ccc(=O)n(-c4c(F)cccc4F)n3)ccc21 [Example 283, N-(4-((3R,4R)-3-amino-4-methylpyrrolidin-1-yl)-1-(2-methoxyethyl)-1H-indazol-5-yl)-1-(2,6-difluorophenyl)-6-oxo-1,6-dihydropyridazine-3-carboxamide]
COCCn1ncc2c(N3CCC(N)CC3)c(NC(=O)c3ccc(=O)n(-c4c(F)cccc4F)n3)cc(F)c21 [Example 284, N-(4-(4-aminopiperidin-1-yl)-7-fluoro-1-(2-methoxyethyl)-1H-indazol-5-yl)-1-(2,6-difluorophenyl)-6-oxo-1,6-dihydropyridazine-3-carboxamide]
COCCn1ncc2c(N3CC[C@@H](N)C3)c(NC(=O)c3ccc(=O)n(-c4c(F)cccc4F)n3)ccc21 [Example 285, (R)-N-(4-(3-aminopyrrolidin-1-yl)-1-(2-methoxyethyl)-1H-indazol-5-yl)-1-(2,6-difluorophenyl)-6-oxo-1,6-dihydropyridazine-3-carboxamide]
COCCn1ncc2c(N3CCC[C@@H](N)C3)c(NC(=O)c3ccc(=O)n(-c4c(F)cccc4F)n3)cc(F)c21 [Example 286, (R)-N-(4-(3-aminopiperidin-1-yl)-7-fluoro-1-(2-methoxyethyl)-1H-indazol-5-yl)-1-(2,6-difluorophenyl)-6-oxo-1,6-dihydropyridazine-3-carboxamide]
